Assays:
[1] = system: HIV-1 infected Hut/CCR5 cells; test: TUNEL assay, cytoprotective activity in HIV-1 infected Hut/CCR5 cells; format: cell-based; settings: HIV-1 infected Hut/CCR5 cells, 0.5, 5 and 50 μM
Description: The TUNEL reaction preferentially labels DNA strand breaks generated during apoptosis. This is done by labeling DNA strand breaks by terminal deoxynucleotidyl transferase (TdT), which catalyzes polymerization of labeled nucleotides to free 3′-OH DNA ends in a template-independent manner (TUNEL-reaction). The TUNEL method (In Situ Cell Death Detection Kit, Fluorescein, Roche) combined with flow cytometry was used for the measurement of apoptosis (Gorczyca et al. Cancer Res. (1993), 53, 1945). The quantitative analysis of 3′-OH ends was performed using the MDADS analysis program (Beckman Coulter).
HIV-1 infected Hut/CCR5 cells were treated with 2 (0.5, 5, and 50 μM) for 3 days. The cells were fixed (in 4% paraformaldehyde in PBS, pH 7.4) and permeabilisated (0.1% Triton X-100 in 0.1% sodium citrate), The cells were then rinsed twice with PBS and labeled with 50 μL TUNEL reaction mixture (50 μL Enzyme solution +450 μL Label solution) for 60 min. at 37° C. in a humidified atmosphere in dark. The samples were rinsed with PBS three times and resuspended in 1 mL PBS containing 5 μg/mL of PI and 0.1% RNAse. Flow cytometry was performed on a FACScan cytometry. The red (PI) and green (fluorescein) fluorescence emissions from each cell were measured.

HIV-1(IIIB) = settings: 0.5-50 μM, viral p24 antigen, FIG. 8
Experimental: GHOST/CXCR4 and PBMC cells in 24-well plate (5×10^5 cells/well) were pretreated with compounds (400 μL) for an hour at 37° C. and subsequently infected in triplicate with a panel of CCR5-tropic HIV-1 isolates (with the addition of 5 μL of HIV-1 stock to each well, total p24 content=1500 pg) for 3 h. Following infection, the cells were washed to remove residual viral inoculums and cultured in the presence of compounds (400 μL) for 3 or 7 days. Culture supernatants were harvested and viral replication was measured by determination of viral p24 antigen concentration by ELISA (HIV-1 p24 antigen Kit, Beckman Coulter). Compounds were tested in triplicate at 3 concentrations ranging from 0.5-50 μM. AZT was also examined as a reference standard.

HIV-1(BaL) = settings: Hut/CCR5 cells, 3 or 7 days, 0.5-50 μM, viral p24 antigen
Experimental: Following infection, the cells were washed to remove residual viral inoculums and cultured in the presence of compounds (400 μL) for 3 or 7 days. Culture supernatants were harvested and viral replication was measured by determination of viral p24 antigen concentration by ELISA (HIV-1 p24 antigen Kit, Beckman Coulter). Compounds were tested in triplicate at 3 concentrations ranging from 0.5-50 μM.

HIV-1 RT = HIV-1 RT (Human immunodeficiency virus type 1 group M subtype B, UniProt P04585); settings: percentage luminescence relative to untreated control
Experimental: The inhibitory effect of different compounds on HIV-1 RT activities were assayed using a commercial assay kit (Reverse Transcriptase Assay, Chemiluminescent, Roche). […] (30 min.). The ELISA assays were conducted by following the manufacturer's instructions (Eberle and Seibl J. Virol. Methods (1992), 40, 347). In general, the indicated components were added to the corresponding wells of the microtitre plate from the kit and incubated for 1 h at 37° C. The solution in each well was then completely removed and the wells were rinsed five times with 250 μL of washing buffer per well. During each washing step, the washing buffer was left in the wells for a minimum of 30 seconds. The microtitre plate modules were covered and dried with a blotting paper, followed by the incubation with anti-DIG-POD working dilution was added (200 μL per well) for 1 h at 37° C. The solution was discarded followed by the washing and drying steps as described above. The POD substrate was added (200 μL per well) and was incubated at room temperature for 15 min. The chemiluminescent signal was measured and quantified using a microtitre plate chemiluminescence reader. The HIV-1 RT activities were evaluated based on percentage luminescence of the solutions relative to the negative control (untreated population).

Na7[Ru4(μ3-O)4(C2O4)6] [Complex 2]
cytoprotective activity (TUNEL) [1]: showed cytoprotective activity
inhibition of HIV-1 replication in GHOST/CXCR4 cells (HIV-1(IIIB)): inhibited
inhibition of HIV-1 replication in PBMC cells (HIV-1(IIIB)): inhibited
inhibition of HIV-1(BaL) replication (HIV-1(BaL)): inhibited
inhibition of HIV-1 RT activity (HIV-1 RT): inhibited

From patent US7648977B2, “Pharmaceutical composition having a ruthenium oxalato compound and method of using the same” (The University of Hong Kong, priority 2005, dated 2010)
